In one test the target is T1, β(1,4)-Gal-T1(Y289L) (Bos taurus, UniProt P08037, I205M/L206V/P187L/V158I/Y289L).
T1 construct: made in house; host or cells: E. coli
T1 sequence (P08037 1-402 V158I/P187L/I205M/L206V/Y289L): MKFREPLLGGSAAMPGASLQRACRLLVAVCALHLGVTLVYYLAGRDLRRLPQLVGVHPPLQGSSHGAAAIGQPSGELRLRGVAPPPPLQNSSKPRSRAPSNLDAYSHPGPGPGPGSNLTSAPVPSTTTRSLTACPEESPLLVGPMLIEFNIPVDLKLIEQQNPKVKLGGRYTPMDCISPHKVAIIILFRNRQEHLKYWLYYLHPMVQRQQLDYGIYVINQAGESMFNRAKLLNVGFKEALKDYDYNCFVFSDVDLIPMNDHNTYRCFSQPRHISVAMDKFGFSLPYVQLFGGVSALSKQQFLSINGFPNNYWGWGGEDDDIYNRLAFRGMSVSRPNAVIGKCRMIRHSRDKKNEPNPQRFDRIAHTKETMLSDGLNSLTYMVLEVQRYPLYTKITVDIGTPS
The test is described as follows: Glycosyltransfer of UDP-galactosamine derivatives to trimmed trastuzumab with Gal-T1(Y289L) expressed in E. coli, mass spectral analysis. In kind it is biochemical, bovine. To be noted: trimmed trastuzumab 10 mg/mL; UDP derivative 7 mM; enzyme 2 mg/mL; pH 8.0, 30° C. overnight; reduced sample. On the procedure:
General Protocol for Glycosyltransfer of Galactose Derivative UDP-GalNAz 21-24 with Gal-T1(Y289L) (Expressed in E. coli).
Enzymatic introduction of UDP-Gal derivatives 21-24 onto deglycosylated trastuzumab was effected with a mutant of bovine β(1,4)-galactosyltransferase [β(1,4)-Gal-T1(Y289L)] (expressed in E. coli). The deglycosylated trastuzumab (10 mg/mL) was incubated with the appropriate UDP-galactose derivative (0.4 mM) and β(1,4)-Gal-T1(Y289L) (1 mg/mL) in 10 mM MnCl2 and 25 mM Tris-HCl pH 8.0 for 16 hours at 30° C.
Next, the functionalized trastuzumab was incubated with protein A agarose (40 μL per mg IgG) for 2 hours at 4° C. The protein A agarose was washed three times with PBS and the IgG was eluted with 100 mM glycine-HCl pH 2.7. The eluted IgG was neutralized with 1 M Tris-HCl pH 8.0 and concentrated and washed with PBS using an Amicon Ultra-0.5, Ultracel-10 Membrane (Millipore) to a concentration of 15-20 mg/mL.
Trimmed trastuzumab (10 mg/mL, 3.3 nmol), obtained by Endo S treatment of trastuzumab, was incubated with UDP-galactosamine variant 21 (2.5 mM) and β(1,4)-Gal-T1(Y289L) (0.68 mg/mL, 45 μL) in 10 mM MnCl2 and 25 mM Tris-HCl pH 8.0 at 30° C. overnight.
Trimmed trastuzumab (10 mg/mL, 1.3 nmol), obtained by Endo S treatment of trastuzumab, was incubated with UDP-galactosamine variant 22 (4 mM) and β(1,4)-Gal-T1(Y289L) (1.4 mg/mL, 10 μL) in 10 mM MnCl2 and 25 mM Tris-HCl pH 8.0 at 30° C. overnight. Mass spectral analysis of the reduced sample indicated the formation of the product (49750.9 Da, approximately 80% of total heavy chain), resulting from galactosamide furan-2-carboxyl acid transfer to core GlcNAc(Fuc) substituted trastuzumab heavy chain as shown in FIG. 9.
Trimmed trastuzumab (10 mg/mL, 6.6 nmol), obtained by Endo S treatment of trastuzumab, was incubated with the 4-azido-3,5-difluorobenzoyl derivative of UDP-galactosamine (23, 7 mM) and β(1,4)-Gal-T1(Y289L) (2 mg/mL) in 10 mM MnCl2 and 25 mM Tris-HCl pH 8.0 at 30° C. overnight. Mass spectral analysis of the reduced sample indicated the formation of a one major product (49813 Da, approximately 90% of total heavy chain), resulting from transfer of 23 to core GlcNAc(Fuc)-substituted trastuzumab heavy chain.
Trimmed trastuzumab (10 mg/mL, 1.3 nmol), obtained by Endo S treatment of trastuzumab, was incubated with UDP-galactosamine variant 24 (4 mM) and (3(1,4)-Gal-T1(Y289L) (1.4 mg/mL, 10 μL) in 10 mM MnCl2 and 25 mM Tris-HCl pH 8.0 at 30° C. overnight.

Another test has as its target T2, Gal-T1(Y289M) (Bos taurus, UniProt P08037, I205M/L206V/P187L/V158I/Y289M).
T2 construct: host or cells: CHO K1
T2 sequence (P08037 74-402 V158I/P187L/I205M/L206V/Y289M): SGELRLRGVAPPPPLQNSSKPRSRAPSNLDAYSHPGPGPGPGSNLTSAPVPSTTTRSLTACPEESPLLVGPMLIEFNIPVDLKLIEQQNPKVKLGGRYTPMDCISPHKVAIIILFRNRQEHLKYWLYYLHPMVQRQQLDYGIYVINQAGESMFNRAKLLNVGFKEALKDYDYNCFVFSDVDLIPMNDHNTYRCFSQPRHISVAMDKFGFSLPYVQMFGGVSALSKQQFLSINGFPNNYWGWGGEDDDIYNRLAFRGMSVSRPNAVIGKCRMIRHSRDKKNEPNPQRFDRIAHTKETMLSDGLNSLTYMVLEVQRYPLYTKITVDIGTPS
The test is described as follows: Glycosyltransfer to trimmed trastuzumab with Gal-T1(Y289M) expressed in CHO. To be noted: trimmed trastuzumab 10 mg/mL; UDP derivative 5 mM; enzyme 0.5 mg/mL; pH 8.0, 30° C. overnight. In kind it is biochemical, bovine. An excerpt: A set of Gal-T 1 mutants encoding residues 74-402 of bovine Gal-T 1 were transiently expressed in CHO K1 cells by Evitria (Zurich, Switzerland) which include the Gal-T1 single mutants Y289L (represented by SEQ ID NO: 26), Y289F (represented by SEQ ID NO: 27), Y289M (represented by SEQ ID NO: 28), Y289V (represented by SEQ ID NO: 29), Y289A (represented by SEQ ID NO: 30), and Y289G (represented by SEQ ID NO: 31), and the Gal-T1 double mutants Y289L,C342T (represented by SEQ ID NO: 32), and Y289M,C342T (represented by SEQ ID NO: 33). The mutants were purified using a cation exchange column (Source 15S HR16/10 column, GE Healthcare) as described above. Purified proteins were analyzed by SDS-PAGE.
Trimmed trastuzumab (10 mg/mL, […] obtained by Endo S treatment of trastuzumab, was incubated with the 4-azido-3,5-difluorobenzoyl derivative of UDP-galactosamine (23, 5 mM) and one of the Gal-T1 single mutants Y289L, Y289M, Y289A or Y289G (expressed in CHO as described above) (0.5 mg/mL) in 10 mM MnCl2 and 25 mM Tris-HCl pH 8.0 at 30° C. overnight. Mass spectral analysis of the reduced sample indicated a partial conversion of the core GlcNac(Fuc)-substituted trastuzumab heavy chain (49504 Da) into product 30 (49818 to 49825 Da, 20 to 50% of total heavy chain depending on the Gal-T1 mutant used), resulting from transfer of 23 to core GlcNAc(Fuc)-substituted trastuzumab heavy chain. […]

Consider `[N-]=[N+]=Nc1c(F)cc(C(=O)N[C@H]2[C@@H](OP(=O)(O)OP(=O)(O)OC[C@H]3O[C@@H](n4ccc(=O)[nH]c4=O)[C@H](O)[C@@H]3O)O[C@H](CO)[C@H](O)[C@@H]2O)cc1F` [Compound 23, 4-azido-3,5-difluorobenzoyl Derivative of UDP-GalNH2], for which the “product, % of total heavy chain” value at β(1,4)-Gal-T1(Y289L) is “approximately 90%”. Besides, the observed conversion result at Gal-T1(Y289M) is listed as “approximately 50%”.

Values taken from patent US20170009266A1, “PROCESS FOR THE ATTACHMENT OF A GALNAC MOIETY COMPRISING A (HETERO)ARYL GROUP TO A GLCNAC MOIETY, AND PRODUCT OBTAINED THEREBY” (SYNAFFIX B.V., priority 2014, published 2017).
